Paper PMC6770581, “New Thalidomide-Resembling Dicarboximides Target ABC50 Protein and Show Antileukemic and Immunomodulatory Activities” (Biomolecules, 2019)
Where two headings read alike, the source gives them in different places.

Experiments:
K562 cells [1] = conditions: 48 h, MTT, mean ± SD; cited from earlier work
HL-60 cells = conditions: 48 h, MTT, mean ± SD; cited from earlier work
HeLa cells [2] = conditions: 48 h, MTT, mean ± SD; cited from earlier work
MOLT-4 cells = assay: MTT cytotoxicity assay, MOLT-4; format: cell-based; conditions: Homo sapiens, 48 h, mean ± SD
Protocol: (§1) Human umbilical vein endothelial cells (purchased from Life Technologies, Carlsbad, CA, USA) were cultured according to the manufacturer’s instructions in Medium 200 supplemented with Low Serum Growth Supplement. 1 × 10^4 cells were seeded on each well on a 96-well plate (Nunc, Roskilde, Denmark). The HeLa (human cervix carcinoma, cat. #93021013), CFPAC (human pancreatic adenocarcinoma, cat. #91112501), K562 (chronic myelogenous leukemia, cat. #89121407), HL-60 (acute myelogenous leukemia, cat. #98070106), and MOLT-4 (Human acute T lymphoblastic leukemia, cat. #85011413) cells were purchased from European Collection of Authenticated Cell Cultures (ECACC). They were cultured in an RPMI 1640 medium supplemented with antibiotics (streptomycin, penicillin) and 10% fetal calf serum (20% for HL60), in a 5% CO2-95% air atmosphere. 7 × 10^3 cells were seeded on each well on a 96-well plate (Nunc). 24 hours later the cells were exposed to the test compounds. The aliquots of stock solutions of the test compounds (freshly prepared in DMSO) were added to the cell cultures to yield final concentrations of 1, 10^−1, 10^−2, 10^−3, 10^−4, and 10^−5 mM. The concentration of DMSO in the cell culture medium was 1%. The IC50 value (the concentration of a test compound required to reduce the cell survival fraction to 50% of the control) was calculated from a dose-response curve and used as a measure of cellular sensitivity to a given treatment. The IC50 values are given as means (± standard deviation (SD)) from 2 independent experiments with 4 technical replicates. The cytotoxicity of all compounds was determined by the MTT (3-(4,5-dimethylthiazol-2-yl)-2,5-diphenyltetrazolium bromide) assay (Sigma, St. Louis, MO, USA). Briefly, after 24 h or 48 h of incubation with a given compound, the cells were treated with the MTT reagent and incubation was continued for 2 h. MTT-formazan crystals were dissolved in 20% SDS and 50% DMF at pH 4.7 and VIS light absorption was measured at 570 and 650 nm on a microplate reader FLUOstar Omega (BMG Labtech, Offenburg, Germany). As a control (100% viability), cells grown in the presence of 1% DMSO were used.

[3] = system: HUVEC (human umbilical vein endothelial cells); conditions: 48 h, MTT, mean ± SD; cited from earlier work
CFPAC cells = assay: MTT cytotoxicity assay, CFPAC; format: cell-based; conditions: Homo sapiens, 48 h, mean ± SD
Protocol: as §1

K562 cells [4] = assay: MTT cytotoxicity assay, K562; format: cell-based; conditions: Homo sapiens, 48 h, mean ± SD
Protocol: as §1

[5] = system: HUVEC (human umbilical vein endothelial cells); assay: MTT cytotoxicity assay, HUVEC; format: cell-based; conditions: 48 h, mean ± SD
Protocol: as §1

HeLa cells [6] = assay: MTT cytotoxicity assay, HeLa; format: cell-based; conditions: Homo sapiens, 48 h, mean ± SD
Protocol: as §1

ABC50 = ABC50 (Homo sapiens, UniProt Q8NE71); assay: Streptavidin-agarose pull-down from K562 cell lysate with LC-MS-MS/MS and Western blot identification; format: binding; design: endogenous in cells; host or cells: K562 cell lysate
Chain of ABC50 (Q8NE71 whole entry): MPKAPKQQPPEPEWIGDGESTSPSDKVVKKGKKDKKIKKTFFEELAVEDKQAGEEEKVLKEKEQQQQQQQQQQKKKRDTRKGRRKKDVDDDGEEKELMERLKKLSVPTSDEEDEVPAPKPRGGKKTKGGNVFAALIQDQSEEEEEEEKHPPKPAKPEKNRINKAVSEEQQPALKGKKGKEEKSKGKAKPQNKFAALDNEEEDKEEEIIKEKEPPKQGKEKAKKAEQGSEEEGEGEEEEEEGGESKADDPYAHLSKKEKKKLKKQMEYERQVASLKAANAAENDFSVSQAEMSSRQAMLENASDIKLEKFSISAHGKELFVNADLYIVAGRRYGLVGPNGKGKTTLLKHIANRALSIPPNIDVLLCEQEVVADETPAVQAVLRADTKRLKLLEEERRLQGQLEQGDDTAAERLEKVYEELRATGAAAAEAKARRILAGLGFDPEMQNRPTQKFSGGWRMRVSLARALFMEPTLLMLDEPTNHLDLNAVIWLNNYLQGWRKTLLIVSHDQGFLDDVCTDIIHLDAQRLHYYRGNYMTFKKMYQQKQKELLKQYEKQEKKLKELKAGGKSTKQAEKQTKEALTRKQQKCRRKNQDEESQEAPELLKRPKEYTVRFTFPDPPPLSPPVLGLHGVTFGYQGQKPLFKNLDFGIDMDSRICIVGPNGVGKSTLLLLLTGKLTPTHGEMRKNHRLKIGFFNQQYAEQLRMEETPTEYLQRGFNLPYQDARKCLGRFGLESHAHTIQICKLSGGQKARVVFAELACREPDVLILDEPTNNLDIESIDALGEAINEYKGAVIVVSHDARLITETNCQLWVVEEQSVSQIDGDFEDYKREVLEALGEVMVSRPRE
Protocol: Cells were lysed in TBS buffer containing 1% Triton X-100 and Complete® protease inhibitor cocktail (Roche) for 15 min on ice with occasional vortexing. Insoluble material was centrifuged (12,000 rpm, 15 min, 4 °C) and supernatants were collected. Total protein concentration was measured with DC Protein Assay (Bio-Rad, Hercules, CA, USA). Cell lysates containing 30 µg of total protein were mixed with Laemli buffer supplemented with SDS and β-mercaptoethanol, denatured (10 min, 95 °C) and subjected to sodium dodecyl sulfate polyacrylamide gel electrophoresis (SDS-PAGE) electrophoresis (4% stacking and 10% resolving gels). Resolved proteins were electrotransferred (semi-dry, 90 min, 1.5 mA/cm^2) to a 0.45 µm nitrocellulose membrane (Thermo Scientific, Waltham, MA, USA). Membranes were blocked for 2 hours in TBST buffer (20 mM Tris-HCl pH 7.5, 0.9% NaCl, 0.1% Tween 20) containing 5% BSA (BioShop, Burlington, ON, Canada) and probed with primary antibodies (overnight at 4 °C) diluted in TBST buffer with 0.5% BSA. Tubulin served as a loading control for IB experiments. Anti IKZF3 (rabbit monoclonal, dilution 1:500), anti IKZF1 (rabbit polyclonal, dilution 1:500) were from Abcam. Anti IRF4 (rabbit polyclonal, dilution 1:500) were from Cell Signaling Technology. Anti α-tubulin (mouse monoclonal IgG, 1:1000) was from Sigma Aldrich. Anti ABC50 antibodies (mouse monoclonal ABC5H06, dilution 1:100) was from Abcam. After extensive washing with TBST buffer, membranes were probed with secondary goat anti-rabbit or goat anti-mouse HRP-conjugated IgG (1:5000 in TBST, Santa Cruz Biotech, Dallas, TX, USA) for 45 min at room temperature. Membranes were washed in TBST buffer and the chemiluminescent signal was developed with ECL Plus Western Blotting Substrate (Thermo Scientific) and visualized in Syngene G:Box detection system. Protein bands intensities were analysed using Image Quant (version 5.0, GE Healthcare Life Sciences, Pittsburgh, PA, USA).
300 nmoles of biotinylated 6b was added to 0.6 mL of the high capacity streptavidin agarose resin (Thermo Scientific, Waltham, MA, USA) equilibrated in 50% DMSO and incubated for 2 h (room temperature, gently mixing, total volume 0.7 mL). The K562 cell lysate was prepared in the buffer containing 0.5% NP-40 and supplemented with protease inhibitors coctail (Roche). Next, the beads with immobilized 6b were added to the K562 cell lysate (9 mg of total protein) and incubated for 2 h at 4 °C with gently mixing. As a control, K562 cell lysate incubated with the streptavidin agarose beads was used. After incubation the beads were centrifuged (2000 rpm, 2 min, 4 °C) and washed 6 times with 5 mL of lysis buffer. After the last wash, the beads were resuspended in Laemli buffer and denatured 10 min at 95 °C. Released proteins (40 µL/well) were separated by SDS-PAGE (4% stacking, 8% resolving gel) and silver stained with Pierce Silver Stain Kit (Thermo Scientific, Waltham, MA, USA). Bands of interest were cut out of the gel and digested with trypsin. Tryptic peptides were separated by liquid chromatography (LC) and analyzed by LC-MS-MS/MS with Orbitrap mass spectrometer (Thermo). The sequences of the MS/MS spectra were identified by correlation with the human protein sequence database (Sprot 2016_11, H.) using MASCOT software (version 2.6.2, Matrix Science Inc., Boston, MA, USA) (http://www.matrixscience.com/). The significance threshold was p < 0.05 and ions score or expect cut-off was 22.

K562 cells [7] = assay: Annexin V/PI or 7-AAD flow cytometry of apoptosis, K562; format: cell-based, human; conditions: K562, 5× IC50 (3 10 µM, 6 5 µM, 5 5 µM), staurosporine 1 µM; different incubation times for 3, 6 and 5
Protocol: The phosphatidylserine on the extracellular side of cell membranes was quantified using an FITC Annexin V Apoptosis Detection Kit I (BD Pharmingen, San Diego, CA, USA) according to the manufacturer’s instruction. 10^6 cells were seeded on a 6-well plate (Nunc). […] The control cells were exposed to 1% DMSO or 1μM staurosporine. After treatment the cells were centrifuged at 700 rpm (120× g) for 5 min, washed twice with cold PBS and then resuspended in 1x binding buffer to a density of 10^6 cells/ml. 100 µL of the resuspended cells was stained in the dark with 5 μl of Annexin V-fluoroscein isothiocyanate (FITC) solution and 10 µL propidium iodide (PI) solution for 15 min at room temperature. The samples were then diluted with 400 μL of a binding buffer and within 1 h analyzed with a flow cytometer (BD FACSCalibur^TM, BD Biosciences, San Jose, CA, USA). After treatment, four populations of cells were assessed: (1) viable (neither apoptotic nor necrotic, Annexin V-FITC and PI negative), (2) apoptotic (Annexin V-FITC positive and PI negative), (3) late apoptotic (Annexin V-FITC and PI positive), and (4) necrotic (Annexin V-FITC negative and PI positive).
0.15 × 10^6 cells/ml were seeded on a 6-well plate (Nunclon, Thermo Fisher Scientific, Waltham, MA, USA). Following 24 h preincubation the cells were treated with either the compound or 1% DMSO (control) for 24 or 48 h. After indicated time, the cells were washed with cold PBS (w/o Mg^2+, Ca^2+), stained with Annexin V (FITC Annexin V Apoptosis Detection Kit with 7-aminoactinomycin D (7-AAD), Biolegend, San Diego, CA, USA) according to manufacturer instructions and analysed using BD FACSCalibur flow cytometer. Obtained Flow Cytometry Standard files were analyzed using BD FACSDiva Software (FACSDiva Version 6.1.3, Becton Dickinson Biosciences, San Jose, CA, USA). The experiment was performed three times in at least two technical replicates.

SMILES | IC50 (K562 cells [1]) | IC50 (HL-60 cells) | IC50 (HeLa cells [2]) | IC50 (MOLT-4 cells) | IC50 [3] | further results
CCC12C(=O)C(CC)(C(c3ccccc3)=C1c1ccccc1)C1C(=O)N(CCN(C)C)C(=O)C12 (stereo not shown) [Compound 1] | 10 ± 0.59 µM | > 100 µM | > 100 µM | 20 ± 2.7 µM | > 100 µM | IC50 (CFPAC cells): > 1000 µM
CCN(CC)CCN1C(=O)C2C(C1=O)C1(CC)C(=O)C2(CC)C(c2ccccc2)=C1c1ccccc1 (stereo not shown) [Compound 2] | 4.5 ± 0.29 µM | > 100 µM | > 100 µM | 30 ± 2.3 µM | > 100 µM | IC50 (CFPAC cells): > 1000 µM
CCC12C(=O)C(CC)(C(c3ccccc3)=C1c1ccccc1)C1C(=O)N(CCCN(C)C)C(=O)C12 (stereo not shown) [Compound 4] | 8 ± 0.53 µM | > 100 µM | > 100 µM | 30 ± 2 µM | > 100 µM | IC50 (CFPAC cells): > 1000 µM
NCC(O)CN1C(=O)C2C(C1=O)C1(c3ccccc3)CC2(c2ccccc2)C(c2ccccc2)=C1c1ccccc1 (stereo not shown) [Compound 6a, 4-[-3-(amino)-2-hydroxypropyl]-1,7,8,9-tetraphenyl-4-azatricyclo[5.2.1.0^2,6]dec-8-ene-3,5-dione] | – | – | – | 5 ± 0.59 µM | – | IC50 (K562 cells [4]): 12 ± 1.5 µM; IC50 [5]: > 100 µM; IC50 (HeLa cells [6]): 20 ± 1.9 µM
O=C(CCCCC1SCC2NC(=O)NC21)NCC(O)CN1C(=O)C2C(C1=O)C1(c3ccccc3)CC2(c2ccccc2)C(c2ccccc2)=C1c1ccccc1 (stereo not shown) [Compound 6b] | – | – | – | 1.5 ± 0.06 µM | – | IC50 (K562 cells [4]): 7 ± 1.2 µM; IC50 [5]: 3.8 ± 0.22 µM; IC50 (HeLa cells [6]): 64 ± 10 µM; Description of protein identified, band 1 (ABC50; K562 lysate pull-down, SDS-PAGE band No. 1, LC-MS-MS/MS): Talin-1; Description of protein identified, band 2 (ABC50; K562 lysate pull-down, SDS-PAGE band No. 2, LC-MS-MS/MS): ATP-binding cassette sub-family F member 1 (ABCF1 or ABC50); Description of protein identified, band 3 (ABC50; K562 lysate pull-down, SDS-PAGE band No. 3, LC-MS-MS/MS): ABC50; Description of protein identified, band 4 (ABC50; K562 lysate pull-down, SDS-PAGE band No. 4, LC-MS-MS/MS): ABC50; Description of protein identified, band 5 (ABC50; K562 lysate pull-down, SDS-PAGE band No. 5, LC-MS-MS/MS): ABC50; Description of protein identified, band 6 (ABC50; K562 lysate pull-down, SDS-PAGE band No. 6, LC-MS-MS/MS): ABC50; protein identified by mass spectrometry in pulled-down bands (ABC50; K562 lysate, immobilized on streptavidin-agarose, five out of six bands): ABC50 protein was identified and significantly enriched; Western blot analysis of pull-down material for ABC50 (ABC50; K562 lysate, mouse monoclonal anti ABC50 antibodies): confirmed the presence of ABC50
CC(C)C[C@H](NC(=O)[C@H](Cc1ccccc1)NC(=O)c1cnccn1)B(O)O [bortezomib, reference compound] | 0.04 ± 0.01 µM | 0.3 ± 0.1 µM | 0.05 ± 0.01 µM | – | < 0.01 µM | –
Nc1ccn([C@@H]2O[C@H](CO)[C@@H](O)[C@@H]2O)c(=O)n1 [cytarabine, reference compound] | 300 ± 19 µM | 300 ± 18 µM | > 1000 µM | – | > 1000 µM | –
COc1cccc2c1C(=O)c1c(O)c3c(c(O)c1C2=O)C[C@@](O)(C(=O)CO)C[C@@H]3O[C@H]1C[C@H](N)[C@H](O)[C@H](C)O1 [doxorubicin, reference compound] | 0.15 ± 0.01 µM | 0.15 ± 0.03 µM | 0.5 ± 0.01 µM | – | 0.1 ± 0.03 µM | –
CCc1c2c(nc3ccc(OC(=O)N4CCC(N5CCCCC5)CC4)cc13)-c1cc3c(c(=O)n1C2)COC(=O)[C@]3(O)CC [irinotecan, reference compound] | 10 ± 0.9 µM | 70 ± 2.5 µM | 200 ± 11 µM | – | 30 ± 3.7 µM | –
CNC(=O)c1cc(Oc2ccc(NC(=O)Nc3ccc(Cl)c(C(F)(F)F)c3)cc2)ccn1 [sorafenib, reference compound] | 3 ± 0.3 µM | 15 ± 0.6 µM | 20 ± 2.6 µM | – | 20 ± 4.1 µM | –
CN[C@@H]1C[C@H]2O[C@@](C)([C@@H]1OC)n1c3ccccc3c3c4c(c5c6ccccc6n2c5c31)C(=O)NC4 [staurosporine, reference compound] | – | – | – | – | – | apoptotic cells, early (LR) and late (UR) (K562 cells [7]): about 25%
